Patent US20230241071A1, “COMBINATION TREATMENT OF LIVER DISORDERS” (Terns Pharmaceuticals, Inc., priority 2021, published 2023)
Entries after “also recorded” stand apart in the source; their conditions may differ. Blank lines part the entries; values can stand above or below the compound they belong to.

What was measured:
THR-β = biological target: T1, THR-β (Homo sapiens, UniProt P10828); assay: Binding activity to the thyroxine receptor beta
T1 sequence (P10828 1-461): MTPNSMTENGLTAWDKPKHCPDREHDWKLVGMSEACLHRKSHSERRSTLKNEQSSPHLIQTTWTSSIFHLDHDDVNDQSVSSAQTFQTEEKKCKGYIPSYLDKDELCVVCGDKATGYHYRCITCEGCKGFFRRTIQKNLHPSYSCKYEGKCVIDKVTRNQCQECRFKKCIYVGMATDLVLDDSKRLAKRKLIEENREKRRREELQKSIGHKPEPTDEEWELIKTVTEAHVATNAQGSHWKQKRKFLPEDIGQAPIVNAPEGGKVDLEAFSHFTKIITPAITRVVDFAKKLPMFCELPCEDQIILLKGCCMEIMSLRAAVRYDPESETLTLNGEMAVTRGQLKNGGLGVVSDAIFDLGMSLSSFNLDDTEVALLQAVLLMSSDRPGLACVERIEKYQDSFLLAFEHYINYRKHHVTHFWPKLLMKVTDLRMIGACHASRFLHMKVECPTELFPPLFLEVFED

Approximate pKa = format: physicochemical
[1] = Capsule pharmacokinetics in beagle dogs; format: in vivo, dog
Procedure: To determine the effect of the solubilizer on the uptake of compound 2, 50 mg (based on free acid) Compound 2 was formulated in a capsule with or without 5 wt % SLS (see Table 10) and was administered to fasted beagle dogs pre-treated with pentagastrin (6 μg/kg, administered by intramuscular injection 30±2 minutes prior to administration of compound 2). The plasma concentration of compound 2 was measured over 24 hours (see FIG. 9).
To determine the pH effect on PK performance, beagle dogs were divided into two groups (n=3 per group). For group 1, dogs were pre-treated with pentagastrin (6 μg/kg, intramuscular injection 30±2 minutes prior to administration of compound 2). For group 2, dogs were pre-treated with famotidine (2 tablets, 20 mg/tablet, oral administration 180±10 minutes prior to administration of compound 2). Compound 2 (10 mg capsule, 5% SLS) was administered, and plasma concentrations of compound 2 were monitored for 24 h and are depicted in FIG. 10. […] To determine the food effect on PK performance, beagle dogs were divided into two groups (n=3 per group). For the fasted group, dogs were fasted overnight through 4-hours post dosing. For the fed group, dogs were fed high fat food 30 minutes prior to administration. Plasma concentrations of compound 2 were monitored for 24 h. Compound 2 (10 mg capsule, 5% SLS) was administered, and plasma concentrations of compound 2 were monitored for 24 h and are depicted in FIG. 11.

[2] = Single-ascending dose trial of Compound 1 in healthy participants: safety and plasma PK
VAP-1 = biological target: T2, VAP-1 (Homo sapiens, UniProt Q16853); assay: Compound 1 10 mg QD for 12 weeks in adults with non-cirrhotic NASH phenotype; format: in vivo
T2 construct: from tissue; host or cells: plasma of trial patients
T2 sequence (Q16853 29-763 limits assumed): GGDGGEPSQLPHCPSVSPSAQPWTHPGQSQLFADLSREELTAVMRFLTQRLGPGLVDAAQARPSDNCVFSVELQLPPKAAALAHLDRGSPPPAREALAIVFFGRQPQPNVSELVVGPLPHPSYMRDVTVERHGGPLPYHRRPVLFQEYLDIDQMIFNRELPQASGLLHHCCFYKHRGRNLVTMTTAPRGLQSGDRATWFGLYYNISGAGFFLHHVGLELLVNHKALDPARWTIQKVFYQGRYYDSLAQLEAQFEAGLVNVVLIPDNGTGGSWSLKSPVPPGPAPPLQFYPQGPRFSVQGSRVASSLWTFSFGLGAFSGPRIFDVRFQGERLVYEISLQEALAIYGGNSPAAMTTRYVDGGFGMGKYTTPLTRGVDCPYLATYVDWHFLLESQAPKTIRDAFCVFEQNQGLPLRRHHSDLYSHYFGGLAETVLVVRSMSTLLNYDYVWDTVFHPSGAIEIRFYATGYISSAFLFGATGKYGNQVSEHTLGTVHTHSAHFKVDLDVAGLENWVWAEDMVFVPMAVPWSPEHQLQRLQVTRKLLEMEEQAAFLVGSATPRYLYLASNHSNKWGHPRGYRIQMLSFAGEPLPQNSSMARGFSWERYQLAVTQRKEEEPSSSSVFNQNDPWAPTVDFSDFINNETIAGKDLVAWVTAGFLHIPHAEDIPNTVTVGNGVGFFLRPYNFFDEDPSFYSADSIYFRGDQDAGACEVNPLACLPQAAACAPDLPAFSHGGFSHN

[3] = all single-dose cohorts, 1-10 mg or placebo (n = 32)
[4] = single dose 1 mg or placebo (n = 8)
[5] = single dose 3 mg or placebo (n = 8)
[6] = single dose 6 mg or placebo (n = 8)
[7] = single dose 10 mg or placebo (n = 8)

SMILES: N#Cc1nn(-c2cc(Cl)c(Oc3n[nH]c(=O)c4ccccc34)c(Cl)c2)c(=O)[nH]c1=O [Compound 2, 2-(3,5-dichloro-4-((4-oxo-3,4-dihydrophthalazin-1-yl)oxy)phenyl)-3,5-dioxo-2,3,4,5-tetrahydro-1,2,4-triazine-6-carbonitrile]
THR-α/-β selectivity (THR-β; ratio of binding IC50): >58.8 factor | IC50 (THR-β; read-out: IC50 THR-β binding force): 170 nM | pKa (Approximate pKa): ~4.12 | food effect on PK performance ([1]; 10 mg capsule, 5% SLS, fasted vs high fat food): delayed Compound 2 Tmax but did not have an impact on the plasma exposure | pH effect on PK performance ([1]; 10 mg capsule, 5% SLS, pentagastrin vs famotidine pre-treatment): Minimal pH effect | increase of exposure (Cmax, AUC) by formulation with 5 wt % SLS ([1]; 50 mg capsule with vs without 5 wt % SLS, fasted beagle dogs): more than 70%

change from BL in cT1, liver fat fraction, liver enzymes, or cytokeratin-18 vs placebo (VAP-1; 10 mg QD 12 weeks): no statistically significant differences | inhibition at 10 mg (VAP-1; 10 mg QD, most subjects, by week 2, sustained through week 12, read-out: inhibition of plasma VAP-1 activity): > 98%
SMILES: COC1CCN(c2ncc(OC/C(=C/F)CN)cn2)CC1 [Compound 1, (E)-3-fluoro-2-(((2-(4-methoxypiperidin-1-yl)pyrimidin-5-yl)oxy)methyl)prop-2-en-1-amine]
Subject incidence of TEAEs considered possibly treatment-related [2, 3]: 1 (3.1) | Subject incidence of any TEAE [2, 3]: 5 (15.6) | TEAE frequency: constipation [2, 3]: 1 (3.1) | TEAE frequency: contact dermatitis [2, 3]: 2 (6.3) | TEAE frequency: dysgeusia [2, 3]: 1 (3.1) | TEAE frequency: headache [2, 3]: 1 (3.1) | TEAE frequency: sore throat [2, 3]: 1 (3.1) | TEAE frequency: upper respiratory tract infection [2, 3]: 1 (3.1) | Subject incidence of TEAEs considered possibly treatment-related [2, 4]: 0 | Subject incidence of any TEAE [2, 4]: 0 | TEAE frequency: constipation [2, 4]: 0 | TEAE frequency: contact dermatitis [2, 4]: 0 | TEAE frequency: dysgeusia [2, 4]: 0 | TEAE frequency: headache [2, 4]: 0 | TEAE frequency: sore throat [2, 4]: 0 | TEAE frequency: upper respiratory tract infection [2, 4]: 0 | Subject incidence of TEAEs considered possibly treatment-related [2, 5]: 0 | Subject incidence of any TEAE [2, 5]: 0 | TEAE frequency: constipation [2, 5]: 0 | TEAE frequency: contact dermatitis [2, 5]: 0 | TEAE frequency: dysgeusia [2, 5]: 0 | TEAE frequency: headache [2, 5]: 0 | TEAE frequency: sore throat [2, 5]: 0 | TEAE frequency: upper respiratory tract infection [2, 5]: 0 | Subject incidence of TEAEs considered possibly treatment-related [2, 6]: 0 | Subject incidence of any TEAE [2, 6]: 2 | TEAE frequency: constipation [2, 6]: 0 | TEAE frequency: contact dermatitis [2, 6]: 2 | TEAE frequency: dysgeusia [2, 6]: 0 | TEAE frequency: headache [2, 6]: 0 | TEAE frequency: sore throat [2, 6]: 1 | TEAE frequency: upper respiratory tract infection [2, 6]: 0 | Subject incidence of TEAEs considered possibly treatment-related [2, 7]: 1 (12.5) | Subject incidence of any TEAE [2, 7]: 3 (37.5) | TEAE frequency: constipation [2, 7]: 1 (12.5) | TEAE frequency: contact dermatitis [2, 7]: 0 | TEAE frequency: dysgeusia [2, 7]: 1 (12.5) | TEAE frequency: headache [2, 7]: 1 (12.5) | TEAE frequency: sore throat [2, 7]: 0 | TEAE frequency: upper respiratory tract infection [2, 7]: 1 (12.5) | plasma PK exposure, dose proportionality ([2]; single dose, between 1 and 10 mg): greater than dose proportional | safety and tolerability ([2]; single oral dose 1 mg to 10 mg): No clinically relevant adverse events or laboratory abnormalities; also recorded: safe and well tolerated | safety and tolerability (VAP-1; 10 mg QD 12 weeks): well-tolerated with a safety profile similar to placebo
